Data from patent US5098935A, “Carcinostatic or antitumor antibiotic, conagenin, and production and uses thereof” (Zaidan Hojin Biseibutsu Kagaku Kenkyu Kai, priority 1989, dated 1992).
Entries after “also recorded” stand apart in the source; their conditions may differ.

Columns and labels:
[1] = Acute toxicity (LD50), intraperitoneal administration to female ICR mice; conditions: mouse, in vivo
Experimental: Toxicity of Conagenin was tested by intraperitoneal administration to female ICR mice and estimated as its LD50 being higher than 50 mg/Kg.

[2] = Acidic nature; assay type: physicochemical
[3] = Solubility; assay type: physicochemical
[4] = system: Ehrlich's solid carcinoma; assay: Inhibitory activity on Ehrlich's solid carcinoma in mice; assay type: in vivo, mice (ICR, female); conditions: for Percent inhibition (decrease in weight of solid carcinoma vs untreated control): once a day for 7 days from 7th day, weighed on 15th day
Experimental: (2) Inhibitory activity on Ehrlich's solid carcinoma in mice ICR mice (female, 6 weeks-aged, 4 mice in each group) were inoculated with Ehrlich's ascites carcinoma cells (2×10^6 per mouse in the form of a cell suspension) subcutaneously at the groin of the mice. After the 7th day from the inoculation of the carcinoma cells, an injectable solution of Conagenin was intraperitoneally injected into the carcinoma-bearing mice at a dosage of 6.25, 3.1, 1.56, 0.78, 0.39 and 0.195 mg/Kg once a day during the consecutive 7 days for each group of mice. On the 15th day from the inoculation of the carcinoma cells, the solid carcinoma so grown was cut off and the weight of the solid carcinoma was determined. Control test was conducted using 8 mice of the same type as above in a usual manner. Percent inhibition of the proliferation of the solid carcinoma, i.e. the percent decrease in the weight of the solid carcinoma in each treated group of mice administered with Conagenin as compared to that in the control group of mice (untreated), is callculated and shown in Table 3 below.

[5] = system: Leukemia L1210 cells; assay: Effect on the surface of carcinoma cell membrane: binding of radiolabelled Concanavalin A to Leukemia L1210 cells; assay type: cell-based
Experimental: Each of the resulting suspensions was incubated in a CO2 -incubator (CO2 concentration:5%) at 37° C. for 2 days. A radioisotope-labelled Concanavalin A (Concanavalin A N-[acetyl-^3 H] acetylated; a product of Amersham Co., Ltd.) in an amount of 40 nCi/ml was added to the suspension under incubation at a time of one hour before the end of the incubation. The incubated cells were fixed on a filter paper by a cell harvester and the radioactivity value of the cells so fixed was measured by a liquid scintillation counter. The respective values thus given were converted assumed that the radioactivity value of the control group sample was amounting to 100, and the converted values are shown in Table 4 as the increase in binding of Concanavalin A to L1210 cells.

SMILES: CC(O)C(C)C(O)C(=O)NC(C)(CO)C(=O)O (centres unmarked) [Conagenin]
- toxicity (in words) [1]: low toxicity
- LD50 ([1]; ip, intraperitoneal, female ICR mice): > 50 mg/kg
- acidity (in words) [2]: weakly acidic
- Solubility in chloroform ([3]; chloroform): insoluble; also recorded: sparingly soluble
- Solubility in methanol ([3]; methanol): readily soluble; also recorded: Easily soluble
- Solubility in water ([3]; water): soluble in water
- Percent inhibition (decrease in weight of solid carcinoma vs untreated control) ([4]; 0.195 mg/Kg/day i.p.): 44%
- Percent inhibition (decrease in weight of solid carcinoma vs untreated control) ([4]; 0.39 mg/Kg/day i.p.): 29%
- Percent inhibition (decrease in weight of solid carcinoma vs untreated control) ([4]; 0.78 mg/Kg/day i.p.): 58%
- Percent inhibition (decrease in weight of solid carcinoma vs untreated control) ([4]; 1.56 mg/Kg/day i.p.): 44%
- Percent inhibition (decrease in weight of solid carcinoma vs untreated control) ([4]; 3.1 mg/Kg/day i.p.): 67%
- Percent inhibition (decrease in weight of solid carcinoma vs untreated control) ([4]; 6.25 mg/Kg/day i.p.): 45%
- carcinostatic or antitumor activity in vivo (in words) ([4]; Ehrlich's solid carcinoma in mice): significant carcinostatic or antitimor activity; also recorded: significant carcinostatic or antitumor activity in vivo
- binding of Concanavalin A to L1210 cells (in words) [5]: could increase the binding of Concanavalin A to L1210 cells
- activity at 0.25 µg/mL ([5]; Mus musculus, L1210, 48 h, 0.25 μg/ml, 37° C., 2 days, control group = 100, read-out: Increase in binding of Concanavalin A): < 100%
- activity at 0.5 µg/mL ([5]; Mus musculus, L1210, 48 h, 0.5 μg/ml, 37° C., 2 days, control group = 100, read-out: Increase in binding of Concanavalin A): 129%
- activity at 1 µg/mL ([5]; Mus musculus, L1210, 48 h, 1.0 μg/ml, 37° C., 2 days, control group = 100, read-out: Increase in binding of Concanavalin A): 121%
